These results are taken from publication PMC8552062, “Contributions of UDP-Glucuronosyltransferases to Human Hepatic and Intestinal Metabolism of Ticagrelor and Inhibition of UGTs and Cytochrome P450 Enzymes by Ticagrelor and its Glucuronidated Metabolite” (Frontiers in Pharmacology, 2021).

Data set [1] addresses T1, CYP2C19 (Homo sapiens, UniProt P33261).
T1 construct: co-incubation ticagrelor-O-Glu with selective P450 probe substrates in HLM; tissue XenoTech LLC; host or cells: pooled human liver microsomes
Description: CYP2C19 inhibition in HLM ([S]-mephenytoin 4′-hydroxylase). In kind it is in vitro ADME. On the procedure: The potential inhibitory effects of ticagrelor-O-Glu on the activities of major CYPs, i.e., CYP2B6, CYP2C8, CYP2C9, CYP2C19, CYP2D6, and CYP3A4, were evaluated by co-incubation ticagrelor-O-Glu with selective P450 probe substrates in HLM. Each incubation mixture containing 0.2 mg/ml HLM, ticagrelor-O-Glu and respective substrate (the final substrate concentrations are close to or less than the Km values: 150 μM bupropion, 1.26 μM amodiaquine, 10 μM diclofenac, 20 μM mephenytoin, 20 μM dextromethorphan and 80 μM testosterone (in house data)) in potassium phosphate buffer (100 mM, pH 7.4) was pre-incubated at 37°C for 5 min. Then, NADPH (10 mM) was added to initiate the reaction. The final volume of the incubation mixture was 100 μl. After incubation at 37°C for specific time points, the reaction was terminated by the addition of 200 μl of ice-cold methanol solution with internal standards (diazepam and furafylline). Preliminary screening experiments with selected concentrations of ticagrelor-O-Glu (0, 1, 10, or 100 μM of the final concentration) were carried out to determine the inhibition potency. For those that produced approximately 50% inhibition of CYPs enzyme activities at a ticagrelor-O-Glu concentration between 1 and 100 μM, IC50 was further determined with various concentrations of ticagrelor-O-Glu (0, 1, 5, 10, 20, 50, and 100 μM). All the experiments were performed in triplicates. The supernatant was obtained after centrifugation at 14,000 rpm for 10 min and injected into LC-MS/MS for the analysis of the respective metabolites. The formation of respective metabolites was determined to reflect P450 isoform activities. The metabolites quantified for CYP2B6, CYP2C8, CYP2C9, CYP2C19, CYP2D6, and CYP3A4 were hydroxy bupropion, N-Desethyl amodiaquine, 4′-hydroxylation diclofenac, S-4-hydroxy mephenytoin, dextrorphan and 6β-hydroxy testosterone, respectively.
The percent inhibition relative to the control was calculated to indicate the UGTs or CYPs inhibition. […]

For data set [2], the target named is T2, UGT1A3 (Homo sapiens, UniProt P35503).
T2 sequence (P35503 29-534): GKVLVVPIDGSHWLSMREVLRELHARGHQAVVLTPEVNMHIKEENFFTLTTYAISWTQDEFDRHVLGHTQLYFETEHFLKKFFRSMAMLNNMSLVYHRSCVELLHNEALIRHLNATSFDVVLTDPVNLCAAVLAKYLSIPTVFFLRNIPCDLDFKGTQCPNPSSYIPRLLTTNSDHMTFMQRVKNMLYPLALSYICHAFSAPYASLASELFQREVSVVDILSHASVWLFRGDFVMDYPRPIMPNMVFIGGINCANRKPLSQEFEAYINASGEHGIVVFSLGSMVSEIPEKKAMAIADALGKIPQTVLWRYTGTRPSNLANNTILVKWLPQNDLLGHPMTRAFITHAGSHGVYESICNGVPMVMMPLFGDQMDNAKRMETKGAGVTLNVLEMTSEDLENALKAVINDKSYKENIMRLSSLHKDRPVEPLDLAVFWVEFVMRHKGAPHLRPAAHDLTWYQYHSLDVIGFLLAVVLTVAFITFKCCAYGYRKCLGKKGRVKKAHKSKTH
The experiment in a line: Ticagrelor glucuronidation by recombinant human UGT1A3. In kind it is in vitro ADME. Details: purchased BD Gentest; host or cells: baculovirus-infected insect cells. Particulars: recombinant human UGT1A3, pH 7.4. The protocol:
(§1) Ticagrelor glucuronidation was investigated in an in vitro incubation system by using HLM, HIM, and recombinant human UGTs. The incubation system consisted of enzyme sources (HLM, HIM, or human recombinant UGTs), various concentrations of ticagrelor (dissolved in 50% methanol, 1% v/v, 1, 2, 5, 10, 20, 50, 100, 200, 500 μM of final concentration), alamethicin (50 μg/mg protein), 5 mM MgCl2, 100 mM tris-HCL buffer (pH 7.4), and 5 mM UDPGA in a total volume of 100 μl. Alamethicin is a pore-forming polypeptide used to activate UGTs in HLM and HIM ([Fisher et al., 2000]). Preliminary studies were conducted to determine the optimal protein concentrations and incubation times. Linear conditions of ticagrelor-O-Glu formation from ticagrelor, i.e., HLM, 0.2 mg of protein/ml and 60 min, HIM, 0.2 mg of protein/ml and 60 min, and recombinant human UGTs, 0.2 mg of protein/ml and 60 min were selected. The incubation mixture without UDPGA was placed on ice for 15 min to activate UGT by alamethicin. […]
Kinetic analyses were performed using the mean values of triplicate determinations with either pooled HLM, HIM, or recombinant human UGTs. All data were analyzed by nonlinear regression analysis using the GraphPad Prism 6 (GraphPad Software Inc., CA, United States). […] Intrinsic clearance (CLint) was calculated by dividing Vmax by Km.

On the set-up of data set [3]: method as in Husted et al., 2006. Conditions: humans, 100 mg b.i.d.; ref Husted et al., 2006; cited from earlier work.
Data set [4] has as its target T3, recombinant human UGT2B4 (Homo sapiens, UniProt P06133).
T3 construct: purchased BD Gentest; host or cells: baculovirus-infected insect cells
Description: Ticagrelor glucuronidation screen, recombinant human UGT2B4. In kind it is in vitro ADME. Conditions: 10 μM ticagrelor. The protocol: as §1, with “alamethicin. After pre-incubation for 5 min at 37°C, the reactions were started by the addition of UDPGA. After another 60 min of incubation at 37°C, the reaction was terminated by adding 100 μl of acetonitrile containing internal standard (diazepam). The mixture vortexed for 2 min and then centrifuged at 14,000 rpm for 10 min at 4°C.” for “alamethicin.”

T1 sequence (P33261 whole entry): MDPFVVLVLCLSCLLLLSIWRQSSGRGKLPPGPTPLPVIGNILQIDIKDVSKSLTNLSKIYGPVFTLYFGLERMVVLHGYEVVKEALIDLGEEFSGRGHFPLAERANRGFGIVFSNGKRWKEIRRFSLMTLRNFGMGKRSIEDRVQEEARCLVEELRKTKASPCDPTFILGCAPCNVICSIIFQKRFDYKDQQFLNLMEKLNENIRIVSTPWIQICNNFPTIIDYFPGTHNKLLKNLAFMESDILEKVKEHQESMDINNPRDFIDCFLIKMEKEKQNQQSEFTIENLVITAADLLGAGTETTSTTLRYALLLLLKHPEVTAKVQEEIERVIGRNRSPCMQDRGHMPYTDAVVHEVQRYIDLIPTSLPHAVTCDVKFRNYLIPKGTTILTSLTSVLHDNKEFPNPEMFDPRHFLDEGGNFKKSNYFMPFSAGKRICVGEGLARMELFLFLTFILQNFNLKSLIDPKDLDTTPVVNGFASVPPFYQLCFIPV
T3 sequence (P06133 24-528): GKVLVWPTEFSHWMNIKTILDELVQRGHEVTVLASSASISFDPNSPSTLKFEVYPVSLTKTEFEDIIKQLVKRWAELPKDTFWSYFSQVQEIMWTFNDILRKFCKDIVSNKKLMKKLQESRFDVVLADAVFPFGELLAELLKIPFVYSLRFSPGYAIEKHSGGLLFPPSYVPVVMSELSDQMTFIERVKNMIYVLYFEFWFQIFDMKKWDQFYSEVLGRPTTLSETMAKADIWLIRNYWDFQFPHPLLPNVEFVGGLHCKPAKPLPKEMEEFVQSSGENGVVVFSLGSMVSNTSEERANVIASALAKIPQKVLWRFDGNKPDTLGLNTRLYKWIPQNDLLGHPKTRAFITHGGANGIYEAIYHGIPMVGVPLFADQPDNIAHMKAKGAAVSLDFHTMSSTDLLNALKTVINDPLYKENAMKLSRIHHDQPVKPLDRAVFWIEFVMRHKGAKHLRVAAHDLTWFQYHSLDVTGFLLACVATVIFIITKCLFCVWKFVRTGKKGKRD

Turning to `CCCSc1nc(N[C@@H]2C[C@H]2c2ccc(F)c(F)c2)c2nnn([C@@H]3C[C@H](OCCO[C@@H]4O[C@H](C(=O)O)[C@@H](O)[C@H](O)[C@H]4O)[C@@H](O)[C@H]3O)c2n1` [Ticagrelor-O-Glu, ticagrelor-O-glucuronide], the IC50 – broadly, the concentration that inhibits the measured activity by half – in data set [1] (CYP2C19, [S]-mephenytoin 4′-hydroxylase, HLM 0.2 mg/ml) was determined as 18.8 µM. Also, the inhibition – broadly, the share of the control response that was lost under treatment – at 10 μM in data set [1] (human, human liver microsomes, pH 7.4, probe mephenytoin (20 μM), S-4-hydroxy mephenytoin formation, HLM, 10 μM ticagrelor-O-Glu, read-out: inhibition of CYP2C19 enzyme activity) came to 32.7%. Also, in data set [1] (human, human liver microsomes, pH 7.4, probe mephenytoin (20 μM), S-4-hydroxy mephenytoin formation, HLM, 100 μM ticagrelor-O-Glu, read-out: inhibition of CYP2C19 enzyme activity), the inhibition at 100 µM was determined as 83.6%.
Consider `CCCSc1nc(N[C@@H]2C[C@H]2c2ccc(F)c(F)c2)c2nnn([C@@H]3C[C@H](OCCO)[C@@H](O)[C@H]3O)c2n1` [Ticagrelor], for which, in data set [2], the microsomal CLint (as a rule, the rate of metabolic loss divided by the concentration) came out at 0.04 µL/min/mg. Further, the “steady-state maximal plasma concentration (Cmax)” value in data set [3] is 0.81 µg/mL. Besides, the “glucuronidation activity for ticagrelor” value in data set [4] is reported as “no glucuronidation activities”.
